By IC50 is commonly meant the concentration that gives 50% inhibition.

Assay [1] deals with Naegleria fowleri trophozoites. Briefly: CellTiter-Glo 2.0 trophocidal assay, N. fowleri. The assay is classed as cell-based. How it is done:
Pathogenic Naegleria fowleri (ATCC 30215), a clinical isolate obtained from a child in Adelaide, Australia, that died of PAM in 1969 was previously purchased from the American Type Culture Collection (ATCC). Trophozoites were routinely grown axenically at 34 °C in Nelson’s complete medium (NCM) in non-vented 75 cm^2 tissue culture flasks (Olympus, El Cajon, CA, USA), until the cells were 80–90% confluent. For sub-culturing, cells were placed on ice to detach the cells from the culture flasks. The cells were collected by centrifugation at 4000 rpm at 4 °C. Complete NCM media is produced by the addition of 10% FBS and 125 μg of penicillin/streptomycin antibiotics.
The trophocidal activity of compounds was assessed using the CellTiter-Glo 2.0 luminescent viability assay (Promega, Madison, WI, USA), as previously described. Trophozoites were routinely cultured as described above and only logarithmic trophozoites were used. In brief, B. mandrillaris, N. fowleri, or A. castellanii trophozoites cultured in their corresponding media were seeded at 16,000, 3000, or 1440 cells/well into white 96-well plates (Costar 3370), respectively. Initially all compounds were assessed in a single-point drug screen at 10 and 1 μM, as previously described. […] Control wells were supplemented with 0.1% (10 μM screening plate) or 0.01% (1 μM screening plate) DMSO, as the negative controls, or 12.5 μM of chlorhexidine, as the positive control. Following the single-point assays at 10 and 1 µM, we prioritized compounds for progression to IC50 determinations. […] We used this process to reduce the number of potential false positives. Drugs were cherry-picked, dissolved in the media specific to each parasite, and assessed in twofold serial dilutions from the highest concentration of 10 μM. All assays were incubated at each of the parasites’ representative growth temperatures, described above, for 72 h. At the 72 h time point, 25 μL of CellTiter-Glo 2.0 reagent was added to all wells of the 96-well plates using the Biomek NX^P automated workstation. The plates were protected from light and contents were mixed using an orbital shaker at 300 rpm at room temperature for 2 min to induce cell lysis. After shaking, the plates were equilibrated at room temperature for 10 min to stabilize the luminescent signal. The adenosine triphosphate (ATP) luminescent signal (relative light units; RLUs) was measured at 490 nm with a SpectraMax I3X plate reader (Molecular Devices, Sunnyvale, CA, USA). Drug inhibitory concentration (IC50) curves were generated using total ATP RLUs, where controls were calculated as the average of replicates using the Levenberg–Marquardt algorithm, using DMSO as the normalization control, as defined in Collaborative Drug Discovery Inc. (CDD) Vault (Burlingame, CA, USA). Values reported are from a minimum of two biological replicates with standard deviations.
On the technique in general: In ATP-based viability assays light output follows the ATP content of the culture.

Assay [2] concerns A549 human lung carcinoma cells. Put plainly: MTS cytotoxicity counter-screen of reconfirmed hits. The assay is classed as cell-based. As to the method:
Cytotoxicity of the reconfirmed hits was determined by using the CellTiter 96® AQueous One Solution Cell Proliferation Assay (Promega, Madison, WI) on A549 human lung carcinoma cells. A549 cells were seeded at a concentration of 1.6 × 10^4 cells/mL in 96-well tissue culture plates (Corning, NY, USA), in the presence of serially diluted active hits against B. mandrillaris, N. fowleri, or A. castellanii. Positive control wells contained cells and media; negative control wells contained 0.1% DMSO. Cells were grown in F12K medium supplemented with 10% FBS and 1% gentamycin (all supplied from Fisher Scientific, Atlanta, GA, USA). The inhibitor concentration started at 10 µM and was diluted in doubling dilutions to assess cytotoxicity in comparison to the respective free-living amoeba. Total volume of each well was 100 µL and plates were incubated at 37 °C, 5% CO2 for 72 h. Next, 4 h before the time-point, 20 µL of MTS (Promega, Madison, WI, USA) was added to each well. Inhibition of A549 growth was assessed at the 72 h time-point measuring the optical density (OD) values at 490 nm using a SpectraMax I3X plate reader (Molecular Devices, Sunnyvale, CA, USA). Curve fitting using non-linear regression was carried out using the average of replicates and the Levenberg–Marquardt algorithm, using DMSO as the normalization control, as defined in CDD Vault (Burlingame, CA, USA).
A general note: Counterscreens check selectivity or assay interference.

The mark [3] stands for this setting: Naegleria fowleri, 72 h, CTG method, 72 h, duplicate twofold serial dilutions from 10 µM, mean ± SD; read-out: N. fowleri Mean IC50 (µM) ± SD.
[4] abbreviates: Homo sapiens, A549, MTS assay, 72 h, doubling dilutions from 10 µM, read-out: A549 Mean IC50.
Setting [5] is: CTG method, 72 h, duplicate twofold serial dilutions from 10 µM, mean ± SD; read-out: N. fowleri Mean IC50 (µM) ± SD.
Setting [6] is: MTS assay, 72 h, doubling dilutions from 10 µM, read-out: A549 Mean IC50.

Read-outs that look alike come from different tables or passages of the source.

Turning to `Cc1cc(C2CCCCC2)n(O)c(=O)c1` [Ciclopirox], the IC50 in assay [1] (setting [3]) was 7.5 ± 1.4 µM; in assay [2] (setting [4]), greater than 10 µM. Also, the “Selectivity Index (A549 IC50/N. fowleri IC50)” value (from here on “Selectivity Index”) in assay [1] (SI = (IC50 A549)/(IC50 Amoeba)) is recorded as no less than 1.33.

In the case of `NC[C@H]1OB(O)c2c(OCCCO)cccc21` [Epetraborole], the results for the IC50 in assay [1] (setting [3]) and in assay [2] (setting [4]) were 2.6 ± 0.3 µM and greater than 10 µM, respectively. In addition, the “Selectivity Index” value in assay [1] (SI = (IC50 A549)/(IC50 Amoeba)) is listed as no less than 3.85.

On to `CN(C)[C@@H]1C(O)=C(C(N)=O)C(=O)[C@@]2(O)C(O)=C3C(=O)c4c(O)c(NC(=O)CN5CCCC5)cc(F)c4C[C@H]3C[C@@H]12` [Eravacycline], for which the IC50 in assay [1] (setting [3]) is 2.75 ± 0.35 µM; in assay [2] (setting [4]) it was greater than 10 µM. For the same compound, in assay [1] (SI = (IC50 A549)/(IC50 Amoeba)), the “Selectivity Index” value is reported as no less than 3.64.

In the case of `CC[C@H]1OC(=O)[C@H](C)[C@@H](O[C@H]2C[C@@](C)(OC)[C@@H](O)[C@H](C)O2)[C@H](C)[C@@H](O[C@@H]2O[C@H](C)C[C@H](N(C)C)[C@H]2O)[C@](C)(O)C[C@@H](C)C(=O)[C@H](C)[C@@H](O)[C@]1(C)O` [Erythromycin], the IC50 in assay [1] (setting [3]) was 0.24 ± 0.02 µM; in assay [2] (setting [4]) it was greater than 10 µM. Also, the “Selectivity Index” value in assay [1] (SI = (IC50 A549)/(IC50 Amoeba)) is reported as no less than 42.6; in assay [1] (SI = (IC50 A549)/(IC50 Amoeba); listed as erythromycin), no less than 10. For the same compound, in assay [1] (dose-response, CTG), the “potency against N. fowleri, in words” value is reported as “nanomolar potency”.

With `Nc1nc(F)nc2c1ncn2[C@@H]1O[C@H](CO)[C@@H](O)[C@@H]1O` [Fludarabine], the IC50 in assay [1] (Naegleria fowleri; CTG method, 72 h, duplicate twofold serial dilutions from 10 µM, mean ± SD; read-out: N. fowleri Mean IC50 (µM) ± SD) was 0.11 ± 0.03 µM; in assay [2] (Homo sapiens, A549, 72 h, read-out: A549 Mean IC50 (µM)), less than 0.31 µM. Further, the “Selectivity Index” value in assay [1] (SI = (IC50 A549)/(IC50 Amoeba)) is reported as less than 2.83. In assay [1] (dose-response, CTG), the “potency against N. fowleri, in words” value is “nanomolar potency”.

In the case of `N#C/C(=C1/SC[C@@H](c2ccc(Cl)cc2Cl)S1)n1ccnc1` [Luliconazole], the IC50 in assay [1] (setting [3]) is 0.02 ± 0.01 µM; in assay [2] (setting [4]), greater than 10 µM. Also, the “Selectivity Index” value in assay [1] (SI = (IC50 A549)/(IC50 Amoeba)) is given as no less than 556; in assay [1] (SI = (IC50 A549)/(IC50 Amoeba); listed as luliconazole) it was no less than 10. In addition, the “potency against N. fowleri, in words” value in assay [1] (dose-response, CTG) is given as “nanomolar potency”.

As for `Oc1c(C(Nc2nc3ccccc3s2)c2ccc(OC(F)F)cc2)ccc2cccnc12` (stereo not drawn) [MMV019724], the IC50 was 6 ± 0.7 µM in assay [1] (setting [5]) and 6.2 µM in assay [2] (setting [6]).

As to `Nc1nc(N)c2c(Sc3ccccc3)cccc2n1` [MMV021759], in assay [2] (setting [6]), the IC50 is greater than 10 µM.

Take `CCC(C)NCC(O)Cn1c2ccc(Cl)cc2c2cc(Cl)ccc21` (stereo not drawn) [MMV1578570]: the figures for the IC50 in assay [1] (setting [5]) and in assay [2] (setting [6]) were 6.4 ± 0.9 µM and greater than 10 µM, respectively.

Turning to `O=c1cc(NCCCN[C@@H]2CCOc3c(Br)cc(Br)cc32)[nH]c2ccsc12` [MMV1578884], the results for the concentration for half-maximal inhibition (IC50) in assay [1] (setting [3]) and in assay [2] (setting [4]) were 0.08 ± 0.02 µM and greater than 10 µM, respectively. Besides, the “Selectivity Index” value in assay [1] (SI = (IC50 A549)/(IC50 Amoeba)) is given as no less than 128; in assay [1] (SI = (IC50 A549)/(IC50 Amoeba); listed as CRS-3123), no less than 10. Further, the “potency against N. fowleri, in words” value in assay [1] (dose-response, CTG) is listed as “nanomolar potency”.

On to `O=C(Nc1cccc(C2=NCCN2)c1)c1ccc(-c2ccc(C(=O)Nc3cccc(C4=NCCN4)c3)cc2)cc1` [MMV1580853], for which the concentration for half-maximal inhibition (IC50) in assay [1] (setting [5]) is 4.95 ± 2.55 µM; in assay [2] (setting [6]), greater than 10 µM.

With `Cc1cccc(C)c1C(=O)Nc1nc(-c2ccccn2)cc2ccccc12` [MMV1581558], the IC50 in assay [2] (setting [6]) is greater than 10 µM.

In the case of `Nc1nc(Nc2ccc3nc(-c4ccc(F)cc4)cc(N)c3c2)cc(-c2ccccc2)n1` [MMV1593541], the half-inhibitory concentration (IC50) was found to be 5.3 ± 0.6 µM in assay [1] (setting [5]) and 2.3 µM in assay [2] (setting [6]).

For `CCOC(=O)Nc1cc(NC(C)CC(C)CN(CC)CC)c2nc(-c3ccccc3)c(-c3ccccc3)nc2n1` (stereo not drawn) [MMV1633967], the IC50 was 8.2 ± 1 µM in assay [1] (setting [5]) and greater than 10 µM in assay [2] (setting [6]).

As for `COc1ccc2sc3c(c2c1)NC(C)CNC3=O` (stereo not drawn) [MMV1782115], the IC50 in assay [1] (setting [5]) was 9.35 ± 0.35 µM; in assay [2] (setting [6]) it was 5.8 µM.

For `C=CCN(C(=O)OCc1ccc([N+](=O)[O-])cc1)C1CCN(CC[C@](C)(CN(C)S(=O)(=O)c2ccccc2)c2ccccc2)CC1` [MMV1782214], the IC50 in assay [1] (setting [5]) was 7.9 µM; in assay [2] (setting [6]), greater than 10 µM.

With `C[C@H](c1cccc2ccccc12)N(C)Cc1ccccc1` [MMV1782221], in assay [2] (setting [6]), the IC50 was greater than 10 µM.

Take `CN1c2ccc(Cl)cc2N(c2ccccc2)C(=O)c2cn(Cc3ccc(CN4CCOCC4)cc3)nc21` [MMV1782222]: the IC50 was 5.4 µM in assay [1] (setting [5]) and greater than 10 µM in assay [2] (setting [6]).

For the compound `OCCC#Cc1nc(-c2ccc(F)cc2)c(-c2ccncc2)n1CCCc1ccccc1` [RWJ-67657], the IC50 is 5.35 ± 0.35 µM in assay [1] (setting [3]) and greater than 10 µM in assay [2] (setting [4]). In addition, in assay [1] (SI = (IC50 A549)/(IC50 Amoeba)), the “Selectivity Index” value was no less than 1.87.

On to `C=C[C@]1(C)C[C@@H](OC(=O)CS[C@@H]2C[C@H]3CC[C@@H](C2)N3C)[C@]2(C)[C@H](C)CC[C@]3(CCC(=O)[C@H]32)[C@@H](C)[C@@H]1O` [Retapamulin], for which the IC50 was no more than 10 µM in assay [1] (CTG method, 72 h, duplicate twofold serial dilutions from 10 µM, mean ± SD; listed as repatamulin; read-out: N. fowleri Mean IC50 (µM) ± SD); 1.12 ± 0.28 µM in assay [1] (setting [5]); greater than 10 µM in assay [2] (setting [4]). Further, in assay [1] (SI = (IC50 A549)/(IC50 Amoeba)), the “Selectivity Index” value is reported as no less than 8.97.

In the case of `CC[C@@]1(O)C(=O)OCc2c1cc1n(c2=O)Cc2cc3c([N+](=O)[O-])cccc3nc2-1` [Rubitecan], the results for the IC50 in assay [1] (setting [3]) and in assay [2] (setting [4]) were 2.3 ± 0.2 µM and 0.47 µM, respectively. In addition, the “Selectivity Index” value in assay [1] (SI = (IC50 A549)/(IC50 Amoeba)) is given as 0.20.

For the compound `Cn1cncc1[C@@](N)(c1ccc(Cl)cc1)c1ccc2c(c1)c(-c1cccc(Cl)c1)cc(=O)n2C` [Tipifarnib], the IC50 in assay [1] (Naegleria fowleri, 72 h, read-out: N. fowleri Mean IC50 (µM) ± SD) stood at 1.23 ± 0.27 µM; in assay [2] (setting [4]) it was 8 µM. Besides, the “Selectivity Index” value in assay [1] (SI = (IC50 A549)/(IC50 Amoeba)) is 6.50.

For `NC(=S)N/N=C/c1ncccc1N` [Triapine], the concentration for half-maximal inhibition (IC50) in assay [1] (setting [3]) is 4 ± 0.1 µM; in assay [2] (setting [4]), 3.5 µM. For the same compound, the “Selectivity Index” value in assay [1] (SI = (IC50 A549)/(IC50 Amoeba)) was determined as 0.88.
